Source: patent US5358951A, “Angiotensin II receptor blocking 2, 3, 6 substituted quinazolinones” (American Cyanamid Company, priority 1993, dated 1994)

Test system: vasopressor response of angiotensin II
Assay: AII Challenge: antagonism of angiotensin II vasopressor response;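 as to Response Average Change: post-dose Angiotensin II-evoked rise in systolic blood pressure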
Format: in vivo
Details: for inhibition in vivo at 1 mg/kg: Rattus norvegicus
Outline: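 Conscious male SHR (16-20 weeks) with aortic and caval cannulae received angiotensin II at 0.05 and 0.1 ug/kg i.v. before and 30-300 min after compound dosing (i.v., i.p. or oral). Blockade is expressed as % of each rat's predose rise in systolic pressure.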

CCCCc1nc2ccc(C3(CO)CC4CCCN4O3)cc2c(=O)n1Cc1ccc(-c2ccccc2-c2nnn[nH]2)cc1 (stereo not drawn) [Example 80, (Trans)-2-butyl-6-[hexahydro-2-(hydroxymethyl)-Pyrrolo[1,2-b]isoxazol-2-yl]-3-[[2'-[1H-tetrazol-5-yl)[1,1'-biphenyl]-4-yl]methyl-4(3H)quinazolinone]
Response Average Change (1 mg/kg P.O., AII 0.05 mcg/kg IV, 30 min post dose): 30 mmHg | Response Average Change (1 mg/kg P.O., AII 0.05 mcg/kg IV, 60 min post dose): 15 mmHg | Response Average Change (1 mg/kg P.O., AII 0.05 mcg/kg IV, 90 min post dose): 22.5 mmHg | Response Average Change (1 mg/kg P.O., AII 0.05 mcg/kg IV, 120 min post dose): 10 mmHg | Response Average Change (1 mg/kg P.O., AII 0.05 mcg/kg IV, 180 min post dose): 19 mmHg | Response Average Change (1 mg/kg P.O., AII 0.05 mcg/kg IV, 240 min post dose): 17.5 mmHg | Response Average Change (1 mg/kg P.O., AII 0.05 mcg/kg IV, 300 min post dose): 30 mmHg | Response Average Change (1 mg/kg P.O., AII 0.1 mcg/kg IV, 30 min post dose): 37.5 mmHg | Response Average Change (1 mg/kg P.O., AII 0.1 mcg/kg IV, 60 min post dose): 32.5 mmHg | Response Average Change (1 mg/kg P.O., AII 0.1 mcg/kg IV, 90 min post dose): 27.5 mmHg | Response Average Change (1 mg/kg P.O., AII 0.1 mcg/kg IV, 120 min post dose): 22.5 mmHg | Response Average Change (1 mg/kg P.O., AII 0.1 mcg/kg IV, 180 min post dose): 25 mmHg | Response Average Change (1 mg/kg P.O., AII 0.1 mcg/kg IV, 240 min post dose): 25 mmHg | Response Average Change (1 mg/kg P.O., AII 0.1 mcg/kg IV, 300 min post dose): 27.5 mmHg | Response Average Change (1 mg/kg i.v., AII 0.05 mcg/kg IV, 30 min post dose): 5 mmHg | Response Average Change (1 mg/kg i.v., AII 0.05 mcg/kg IV, 60 min post dose): 5 mmHg | Response Average Change (1 mg/kg i.v., AII 0.05 mcg/kg IV, 90 min post dose): 9 mmHg | Response Average Change (1 mg/kg i.v., AII 0.05 mcg/kg IV, 120 min post dose): 12.5 mmHg | Response Average Change (1 mg/kg i.v., AII 0.05 mcg/kg IV, 180 min post dose): 12.5 mmHg | Response Average Change (1 mg/kg i.v., AII 0.05 mcg/kg IV, 240 min post dose): 20 mmHg | Response Average Change (1 mg/kg i.v., AII 0.05 mcg/kg IV, 300 min post dose): 16.5 mmHg | Response Average Change (1 mg/kg i.v., AII 0.1 mcg/kg IV, 30 min post dose): 8.5 mmHg | Response Average Change (1 mg/kg i.v., AII 0.1 mcg/kg IV, 60 min post dose): 10 mmHg | Response Average Change (1 mg/kg i.v., AII 0.1 mcg/kg IV, 90 min post dose): 22.5 mmHg | Response Average Change (1 mg/kg i.v., AII 0.1 mcg/kg IV, 120 min post dose): 17.5 mmHg | Response Average Change (1 mg/kg i.v., AII 0.1 mcg/kg IV, 180 min post dose): 17.5 mmHg | Response Average Change (1 mg/kg i.v., AII 0.1 mcg/kg IV, 240 min post dose): 22.5 mmHg | Response Average Change (1 mg/kg i.v., AII 0.1 mcg/kg IV, 300 min post dose): 30 mmHg | inhibition in vivo at 1 mg/kg (iv, 0.5 h, 1 mg/kg i.v., AII 0.05 mcg/kg IV, 30 min post dose): 90% | inhibition in vivo at 1 mg/kg (iv, 0.5 h, 1 mg/kg i.v., AII 0.1 mcg/kg IV, 30 min post dose): 83% | inhibition in vivo at 1 mg/kg (iv, 1 h, 1 mg/kg i.v., AII 0.05 mcg/kg IV, 60 min post dose): 90% | inhibition in vivo at 1 mg/kg (iv, 1 h, 1 mg/kg i.v., AII 0.1 mcg/kg IV, 60 min post dose): 80% | inhibition in vivo at 1 mg/kg (iv, 2 h, 1 mg/kg i.v., AII 0.05 mcg/kg IV, 120 min post dose): 76% | inhibition in vivo at 1 mg/kg (iv, 2 h, 1 mg/kg i.v., AII 0.1 mcg/kg IV, 120 min post dose): 65% | inhibition in vivo at 1 mg/kg (iv, 3 h, 1 mg/kg i.v., AII 0.05 mcg/kg IV, 180 min post dose): 76% | inhibition in vivo at 1 mg/kg (iv, 3 h, 1 mg/kg i.v., AII 0.1 mcg/kg IV, 180 min post dose): 65% | inhibition in vivo at 1 mg/kg (iv, 4 h, 1 mg/kg i.v., AII 0.05 mcg/kg IV, 240 min post dose): 62% | inhibition in vivo at 1 mg/kg (iv, 4 h, 1 mg/kg i.v., AII 0.1 mcg/kg IV, 240 min post dose): 55% | inhibition in vivo at 1 mg/kg (iv, 5 h, 1 mg/kg i.v., AII 0.05 mcg/kg IV, 300 min post dose): 69% | inhibition in vivo at 1 mg/kg (iv, 5 h, 1 mg/kg i.v., AII 0.1 mcg/kg IV, 300 min post dose): 40% | inhibition in vivo at 1 mg/kg (iv, […], 1 mg/kg i.v., AII 0.05 mcg/kg IV, 90 min post dose): 83% | inhibition in vivo at 1 mg/kg (iv, […], 1 mg/kg i.v., AII 0.1 mcg/kg IV, 90 min post dose): 55% | inhibition in vivo at 1 mg/kg (po, 0.5 h, 1 mg/kg P.O., AII 0.05 mcg/kg IV, 30 min post dose): 25% | inhibition in vivo at 1 mg/kg (po, 0.5 h, 1 mg/kg P.O., AII 0.1 mcg/kg IV, 30 min post dose): 6% | inhibition in vivo at 1 mg/kg (po, 1 h, 1 mg/kg P.O., AII 0.05 mcg/kg IV, 60 min post dose): 63% | inhibition in vivo at 1 mg/kg (po, 1 h, 1 mg/kg P.O., AII 0.1 mcg/kg IV, 60 min post dose): 19% | inhibition in vivo at 1 mg/kg (po, 2 h, 1 mg/kg P.O., AII 0.05 mcg/kg IV, 120 min post dose): 75% | inhibition in vivo at 1 mg/kg (po, 2 h, 1 mg/kg P.O., AII 0.1 mcg/kg IV, 120 min post dose): 44% | inhibition in vivo at 1 mg/kg (po, 3 h, 1 mg/kg P.O., AII 0.05 mcg/kg IV, 180 min post dose): 53% | inhibition in vivo at 1 mg/kg (po, 3 h, 1 mg/kg P.O., AII 0.1 mcg/kg IV, 180 min post dose): 38% | inhibition in vivo at 1 mg/kg (po, 4 h, 1 mg/kg P.O., AII 0.05 mcg/kg IV, 240 min post dose): 56% | inhibition in vivo at 1 mg/kg (po, 4 h, 1 mg/kg P.O., AII 0.1 mcg/kg IV, 240 min post dose): 38% | inhibition in vivo at 1 mg/kg (po, 5 h, 1 mg/kg P.O., AII 0.05 mcg/kg IV, 300 min post dose): 25% | inhibition in vivo at 1 mg/kg (po, 5 h, 1 mg/kg P.O., AII 0.1 mcg/kg IV, 300 min post dose): 31% | inhibition in vivo at 1 mg/kg (po, […], 1 mg/kg P.O., AII 0.05 mcg/kg IV, 90 min post dose): 44% | inhibition in vivo at 1 mg/kg (po, […], 1 mg/kg P.O., AII 0.1 mcg/kg IV, 90 min post dose): 31%
